The target in this assay is T1, WT PNP/Pi complex (Escherichia coli, UniProt P0ABP8).
T1 construct: made in house
The assay is described as follows: Calorimetric (ITC) titrations with formycin A. Details: species or system E. coli. As for the experimental part: The isothermal titration experiments were performed on the MicroCal iTC200 (Malvern) microcalorimeter. […] All experiments were carried out at 25°C. For the WT protein series of three calorimetric titrations, with protein concentration in the range of 70 to 800 μM, for the Y160W mutant series of four titration with protein concentration in the range of 300 μM to 1.3 mM were performed. Samples of each protein used for these series came from a single preparation. Ligand samples were 8–12 times more concentrated than the protein sample, in order to achieve a diverse ligand/protein molar ratio during titration and thus better explore binding curves. In some ITC experiments, in order to sample the lower plateau region more accurately, several initial points were measured with less ligand volume added at each step than used in the subsequent titration points measurements. An example of the ITC data is shown in the Supplementary Information (Figure S6). Raw thermograms were analysed with NITPIC[43]. Global analysis of titration curves was performed with Sedphat[20],[21].
Three models were taken into account in analysis of binding curves: model with one (first equation below), two (first two equations) and three binding sites. P+L⇔PLwithKd1PL+L⇔PLLwithKd2PLL+L⇔PLLLwithKd3
The model with one binding site is based on the assumption that all monomers are equivalent, and there is no cooperation between them. In the model with two binding sites the basic functional unit of the protein is a dimer, possible non-equivalence of binding sites or cooperativity between active sites in the dimer are taken into account (in the case of no cooperativity dissociation constants should be related statistically: Kd2 = 4Kd1), the dimers within hexamer are equivalent. The model with three binding sites is based on the crystallographic structures of binary and ternary complexes of PNP with ligands, where two of the dimers are in the “open-closed” conformation, but the third dimer is symmetrical, in the “open-open” conformation. Thus, active sites in the open conformation belonging to “open-closed” and “open-open” dimer may not be equivalent. This model takes into account possibility of cooperation between all monomers within a hexameric molecule of the protein (in the case of no cooperativity dissociation constants should be related statistically: Kd3 = 9Kd1, Kd2 = 3Kd1).
Titration series were analysed globally, always starting from the simplest, one-binding-site model. […] For all tested models the Akaike information criterion[23] was also calculated. Generally both criteria used in the discrimination analysis were pointing the same model as best describing the data. The only exception was thermophoretic titration of the WT protein with formycin A, and it is described in details in the Results. Analysed models were fitted to the raw data, whereas graphs presented in this study were prepared from the normalised data and the fitted curves. The parameters of the fit are dissociation constants and responses of the system. Responses are defined as changes in a measured physical quantity related to the formation of subsequent protein–ligand complexes: intrinsic protein fluorescence intensity, fluorescence intensity of the dye, heat and ellipticity for fluorimetric, thermophoretic, calorimetric and CD titrations, respectively. Responses are normalised for the protein concentration present in the titration, thus giving molar coefficients.

Where two headings read alike, the source gives them in different places.

`Nc1ncnc2c([C@@H]3O[C@H](CO)[C@@H](O)[C@H]3O)[nH]nc12` [FA, Formycin A]: the Kd is 8.9 µM (Kd1 ± SD, three-binding-site model, 50 mM phosphate, pH 7.6, 25 °C, values to be treated as estimates); 812 µM (Kd3 ± SD, three-binding-site model, 50 mM phosphate, pH 7.6, 25 °C, values to be treated as estimates); 55 µM (read-out: Kd2 ± SD, three-binding-site model, 50 mM phosphate, pH 7.6, 25 °C, values to be treated as estimates).

(Values after paper PMC8160210, “Single tryptophan Y160W mutant of homooligomeric E. coli purine nucleoside phosphorylase implies that dimers forming the hexamer are functionally not equivalent” (Scientific Reports, 2021).)
